Assay [1] has as its target T1, 5-hydroxytryptamine receptor 4 (Homo sapiens, UniProt Q13639). Put plainly: Displacement of [3H]GR-113808 from human 5HT4b receptor expressed in COS7 cell membrane by scintillation counting. (Displacement assays read how much labelled ligand stays bound in the presence of the test substance.)
In assay [2] the target is T1, 5-hydroxytryptamine receptor 4. Put plainly: Displacement of [3H]GR-113808 from human 5HT4b receptor expressed in COS7 cell membrane at 1 uM by scintillation counting. The conditions noted are these: COS-7. It is filed as cell membranes.
Assay [3] has the same target. Nature of the assay: Displacement of [3H]GR-113808 from human recombinant 5HT4b receptor expressed in HEK293 cells by scintillation counting. It is filed as cell-based.

Active and inactive are the calls of the source. The calls are words filed in the database; no cut-off is given here.

T1 sequence (Q13639 whole entry): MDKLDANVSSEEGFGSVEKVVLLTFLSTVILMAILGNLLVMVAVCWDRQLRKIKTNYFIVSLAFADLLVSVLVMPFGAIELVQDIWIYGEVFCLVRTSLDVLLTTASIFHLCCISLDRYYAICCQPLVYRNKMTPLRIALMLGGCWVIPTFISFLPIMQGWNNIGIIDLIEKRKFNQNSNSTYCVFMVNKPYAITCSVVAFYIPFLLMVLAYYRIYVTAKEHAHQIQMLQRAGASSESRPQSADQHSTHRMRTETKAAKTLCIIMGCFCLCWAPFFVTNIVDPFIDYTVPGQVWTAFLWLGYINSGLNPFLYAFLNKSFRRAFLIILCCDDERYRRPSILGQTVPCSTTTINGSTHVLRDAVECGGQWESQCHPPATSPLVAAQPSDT

The term Ki denotes the dissociation constant of the complex between target and ligand, obtained from inhibition or displacement. In turn, `COc1ccc2[nH]cc(CNN3CCOCC3)c2c1` showed a Ki in assay [1] of 145 nM. Further, the outcome in assay [2] was Active.

With `COc1ccc2[nH]cc(CCN)c2c1` [5-METHOXYTRYPTAMINE], the figures for the Ki in assay [3] and in assay [1] were 245 nM and 26.9 nM, respectively.

These data come from ChEMBL document CHEMBL1152899, “Synthesis and preliminary screening of novel indole-3-methanamines as 5-HT4 receptor ligands” (Eur J Med Chem, 2009).
